Measured values taken from patent publication US10537558B2 (Bantam Pharmaceutical, LLC, priority 2015, dated 2020).
Like-named read-outs stand apart in the source and are kept apart here.

Tested on: BJAB cells
Test: BJAB cell proliferation (Cell Titer Glo)
Assay type: cell-based
Procedure, shortened: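 BJAB cells exposed to serially diluted compounds (0.1% DMSO final) for about 72 h at 37 °C. Proliferation read by Cell Titer Glo luminescence as percent of untreated controls; EC50 from non-linear regression of dose-response data.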

Q: How did the EC50 (Homo sapiens, read-out: EC50) turn out when `Cc1ccccc1-c1c(C)nn(-c2nc(-c3ccc(Cl)c(Cl)c3)c(SC(C)C)s2)c1C(=O)N1CCC(CN)CC1` [Compound 131, (4-(aminomethyl)piperidin-1-yl)(1-(4-(3,4-dichlorophenyl)-5-(isopropylthio)thiazol-2-yl)-3-methyl-4-o-tolyl-1H-pyrazol-5-yl)methanone] was run?
A: Its EC50 is 1 to 5 µM.

Q: `COc1cncc(-c2c(C)nn(-c3nc(-c4ccc(Cl)c(Cl)c4)c(SC(C)C)s3)c2C(=O)O)c1` [Compound 132, 1-(4-(3,4-dichlorophenyl)-5-(isopropylthio)thiazol-2-yl)-4-(5-methoxypyridin-3-yl)-3-methyl-1H-pyrazole-5-carboxylic acid] was tested. Which EC50 (Homo sapiens, read-out: EC50) did it give?
A: The EC50 was 10 to 25 µM.

Q: Which EC50 (Homo sapiens, read-out: EC50) does the source give for `Cc1nn(-c2nc(-c3ccc(Cl)c(Cl)c3)c(SC(C)C)s2)c(C(=O)O)c1-c1cnn(CC(C)C)c1` [Compound 133, 2-(4-(3,4-dichlorophenyl)-5-(isopropylthio)thiazol-2-yl)-2′-isobutyl-5-methyl-4,4′-bi(2H-pyrazole)-3-carboxylic acid] here?
A: The EC50 was 10 to 25 µM.

Q: For `CNc1cc(-c2c(C)nn(-c3nc(-c4ccc(Cl)c(Cl)c4)c(SC(C)C)s3)c2C(=O)O)ccn1` [Compound 134, 1-(4-(3,4-dichlorophenyl)-5-(isopropylthio)thiazol-2-yl)-3-methyl-4-(2-(methylamino)pyridin-4-yl)-1H-pyrazole-5-carboxylic acid], which EC50 (Homo sapiens, read-out: EC50) is on record?
A: The EC50 was 10 to 25 µM.

Q: Which EC50 (Homo sapiens, read-out: EC50) does the source give for `Cc1nn(-c2nc(-c3ccc(Cl)c(Cl)c3)c(SC(C)C)s2)c(C(=O)O)c1-c1cnn(C(=O)N(C)C)c1` [Compound 135, 1-(4-(3,4-dichlorophenyl)-5-(isopropylthio)thiazol-2-yl)-1′-(dimethylcarbamoyl)-3-methyl-1H,1′H-[4,4′-bipyrazole]-5-carboxylic acid] here?
A: The EC50 was 25 to 50 µM.

Q: How did the EC50 (Homo sapiens, read-out: EC50) turn out when `Cc1nn(-c2nc(-c3ccc(Cl)c(Cl)c3)c(SC(C)C)s2)c(C(=O)N2CCC(CN)CC2)c1-c1cc(C(F)(F)F)cc(C(F)(F)F)c1` [Compound 136, (4-(aminomethyl)piperidin-1-yl)(4-(3,5-bis(trifluoromethyl)phenyl)-1-(4-(3,4-dichlorophenyl)-5-(isopropylthio)thiazol-2-yl)-3-methyl-1H-pyrazol-5-yl)methanone] was run?
A: Its EC50 is 1 to 5 µM.

Q: With `Cc1nn(-c2nc(-c3ccc(Cl)c(Cl)c3)c(SC(C)C)s2)c(C(=O)N(C)CCN)c1-c1cc(C(F)(F)F)cc(C(F)(F)F)c1` [Compound 137, N-(2-aminoethyl)-4-(3,5-bis(trifluoromethyl)phenyl)-1-(4-(3,4-dichlorophenyl)-5-(isopropylthio)thiazol-2-yl)-N,3-dimethyl-1H-pyrazole-5-carboxamide] as the compound, how does the EC50 (Homo sapiens, read-out: EC50) read?
A: The EC50 was 1 to 5 µM.

Q: For `Cc1nn(-c2nc(-c3ccc(Cl)c(Cl)c3)c(SC(C)C)s2)c(C(=O)N2CC(N)C2)c1-c1cc(C(F)(F)F)cc(C(F)(F)F)c1` [Compound 138, (3-aminoazetidin-1-yl)(4-(3,5-bis(trifluoromethyl)phenyl)-1-(4-(3,4-dichlorophenyl)-5-(isopropylthio)thiazol-2-yl)-3-methyl-1H-pyrazol-5-yl)methanone], which EC50 (Homo sapiens, read-out: EC50) is on record?
A: Its EC50 is 10 to 25 µM.

Q: Which EC50 (Homo sapiens, read-out: EC50) does the source give for `Cc1nn(-c2nc(-c3ccc(Cl)c(Cl)c3)c(SC(C)C)s2)c(C(=O)N2CCOCC2)c1-c1cc(C(F)(F)F)cc(C(F)(F)F)c1` [Compound 139, (4-(3,5-bis(trifluoromethyl)phenyl)-1-(4-(3,4-dichlorophenyl)-5-(isopropylthio)thiazol-2-yl)-3-methyl-1H-pyrazol-5-yl)(morpholino)methanone] here?
A: Its EC50 is 10 to 25 µM.

Q: For `Cc1nn(-c2nc(-c3ccc(Cl)c(Cl)c3)c(SC(C)C)s2)c(C(=O)N(C)C)c1-c1cc(C(F)(F)F)cc(C(F)(F)F)c1` [Compound 140, 4-(3,5-bis(trifluoromethyl)phenyl)-1-(4-(3,4-dichlorophenyl)-5-(isopropylthio)thiazol-2-yl)-N,N,3-trimethyl-1H-pyrazole-5-carboxamide], which EC50 (Homo sapiens, read-out: EC50) is on record?
A: Its EC50 is > 40 µM.

Q: With `Cc1nn(-c2nc(-c3ccc(Cl)c(Cl)c3)c(SC(C)C)s2)c(C(=O)N2CCC(CO)CC2)c1-c1cc(C(F)(F)F)cc(C(F)(F)F)c1` [Compound 141, (4-(3,5-bis(trifluoromethyl)phenyl)-1-(4-(3,4-dichlorophenyl)-5-(isopropylthio)thiazol-2-yl)-3-methyl-1H-pyrazol-5-yl)(4-(hydroxymethyl)piperidin-1-yl)methanone] as the compound, how does the EC50 (Homo sapiens, read-out: EC50) read?
A: Its EC50 is > 40 µM.

Q: `Cc1nn(-c2nc(-c3ccc(Cl)c(Cl)c3)c(CC(C)C)s2)c(C(=O)O)c1-c1cnn(C)c1` [Compound 142, 1-(4-(3,4-dichlorophenyl)-5-isobutylthiazol-2-yl)-1′,3-dimethyl-1H,1′H-[4,4′-bipyrazole]-5-carboxylic Acid] was tested. Which EC50 (Homo sapiens, read-out: EC50) did it give?
A: Its EC50 is 1 to 5 µM.

Q: For `Cc1cc(C)cc(-c2c(C)nn(-c3nc(-c4ccc(Cl)c(Cl)c4)c(SC(C)C)s3)c2C(=O)O)c1` [Compound 143, 1-(4-(3,4-dichlorophenyl)-5-(isopropylthio)thiazol-2-yl)-4-(3,5-dimethylphenyl)-3-methyl-1H-pyrazole-5-carboxylic Acid], which EC50 (Homo sapiens, read-out: EC50) is on record?
A: The EC50 was 1 to 5 µM.

Q: Which EC50 (Homo sapiens, read-out: EC50) does the source give for `Cc1nn(-c2nc(-c3ccc(Cl)c(Cl)c3)c(SC(C)C)s2)c(C(=O)O)c1-c1cc(Cl)cc(Cl)c1` [Compound 144, 4-(3,5-dichlorophenyl)-1-(4-(3,4-dichlorophenyl)-5-(isopropylthio)thiazol-2-yl)-3-methyl-1H-pyrazole-5-carboxylic Acid] here?
A: The EC50 was < 1 µM.

Q: For `COc1cc(Cl)cc(-c2c(C)nn(-c3nc(-c4ccc(Cl)c(Cl)c4)c(SC(C)C)s3)c2C(=O)O)c1` [Compound 145, 4-(3-chloro-5-methoxyphenyl)-1-(4-(3,4-dichlorophenyl)-5-(isopropylthio)thiazol-2-yl)-3-methyl-1H-pyrazole-5-carboxylic Acid], which EC50 (Homo sapiens, read-out: EC50) is on record?
A: The EC50 was 1 to 5 µM.

Q: How did the EC50 (Homo sapiens, read-out: EC50) turn out when `COc1cc(-c2c(C)nn(-c3nc(-c4ccc(Cl)c(Cl)c4)c(SC(C)C)s3)c2C(=O)O)cc(C(F)(F)F)c1` [Compound 146, 1-(4-(3,4-dichlorophenyl)-5-(isopropylthio)thiazol-2-yl)-4-(3-methoxy-5-(trifluoromethyl)phenyl)-3-methyl-1H-pyrazole-5-carboxylic Acid] was run?
A: Its EC50 is 1 to 5 µM.

Q: How did the EC50 (Homo sapiens, read-out: EC50) turn out when `Cc1cc(Cl)cc(-c2c(C)nn(-c3nc(-c4ccc(Cl)c(Cl)c4)c(SC(C)C)s3)c2C(=O)O)c1` [Compound 147, 4-(3-chloro-5-methylphenyl)-1-(4-(3,4-dichlorophenyl)-5-(isopropylthio)thiazol-2-yl)-3-methyl-1H-pyrazole-5-carboxylic Acid] was run?
A: The EC50 was < 1 µM.

Q: How did the EC50 (Homo sapiens, read-out: EC50) turn out when `Cc1nn(-c2nc(-c3ccc(Cl)c(Cl)c3)c(SC(C)C)s2)c(C(=O)NS(C)(=O)=O)c1-c1cc(C(F)(F)F)cc(C(F)(F)F)c1` [Compound 148, 4-(3,5-bis(trifluoromethyl)phenyl)-1-(4-(3,4-dichlorophenyl)-5-(isopropylthio)thiazol-2-yl)-3-methyl-N-(methylsulfonyl)-1H-pyrazole-5-carboxamide] was run?
A: Its EC50 is > 40 µM.

Q: How did the EC50 (Homo sapiens, read-out: EC50) turn out when `Cc1nn(-c2nc(-c3ccc(Cl)c(Cl)c3)c(SC(C)C)s2)c(C(=O)O)c1-c1cnc2ccccn12` [Compound 149, 1-(4-(3,4-dichlorophenyl)-5-(isopropylthio)thiazol-2-yl)-4-(imidazo[1,2-a]pyridin-3-yl)-3-methyl-1H-pyrazole-5-carboxylic acid] was run?
A: Its EC50 is 5 to 10 µM.

Q: `Cc1nn(-c2nc(-c3ccc(Cl)c(Cl)c3)c(SC(C)C)s2)c(C(=O)O)c1-c1cccc(F)c1` [Compound 151, 1-(4-(3,4-dichlorophenyl)-5-(isopropylthio)thiazol-2-yl)-4-(3-fluorophenyl)-3-methyl-1H-pyrazole-5-carboxylic Acid] was tested. Which EC50 did it give?
A: Its EC50 is “A, B”.

Q: For `Cc1nn(-c2nc(-c3ccc(Cl)c(Cl)c3)c(SC(C)C)s2)c(C(=O)O)c1-c1cc(O)cc(F)c1` [Compound 152, 1-(4-(3,4-dichlorophenyl)-5-(isopropylthio)thiazol-2-yl)-4-(3-fluoro-5-hydroxyphenyl)-3-methyl-1H-pyrazole-5-carboxylic Acid], which EC50 (Homo sapiens, read-out: EC50) is on record?
A: Its EC50 is 5 to 10 µM.

Q: Which EC50 (Homo sapiens, read-out: EC50) does the source give for `Cc1cc(N)cc(-c2c(C)nn(-c3nc(-c4ccc(Cl)c(Cl)c4)c(SC(C)C)s3)c2C(=O)O)c1` [Compound 153, 4-(3-amino-5-methylphenyl)-1-(4-(3,4-dichlorophenyl)-5-(isopropylthio)thiazol-2-yl)-3-methyl-1H-pyrazole-5-carboxylic acid] here?
A: The EC50 was > 25 µM.

Q: Which EC50 (Homo sapiens, read-out: EC50) does the source give for `Cc1nn(-c2nc(-c3ccc(Cl)c(Cl)c3)c(SC(C)C)s2)c(C(=O)O)c1-c1cc(O)cc(Cl)c1` [Compound 154, 4-(3-chloro-5-hydroxyphenyl)-1-(4-(3,4-dichlorophenyl)-5-(isopropylthio)thiazol-2-yl)-3-methyl-1H-pyrazole-5-carboxylic Acid] here?
A: Its EC50 is 10 to 25 µM.

Q: `Cc1nn(-c2nc(-c3ccc(Cl)c(Cl)c3)c(SC(C)C)s2)c(C(=O)O)c1-c1cccc2ccn(C)c12` [Compound 155, 1-(4-(3,4-dichlorophenyl)-5-(isopropylthio)thiazol-2-yl)-3-methyl-4-(1-methyl-1H-indol-7-yl)-1H-pyrazole-5-carboxylic Acid] was tested. Which EC50 (Homo sapiens, read-out: EC50) did it give?
A: The EC50 was 5 to 10 µM.

Q: Which EC50 (Homo sapiens, read-out: EC50) does the source give for `CC(C)Sc1sc(-n2cccn2)nc1-c1ccc(Cl)c(Cl)c1` [Compound 156, 4-(3,4-dichlorophenyl)-5-(isopropylthio)-2-(1H-pyrazol-1-yl)thiazole] here?
A: Its EC50 is > 25 µM.

Q: How did the EC50 (Homo sapiens, read-out: EC50) turn out when `Cc1cc(-c2c(C)nn(-c3nc(-c4ccccc4Cl)c(SC(C)C)s3)c2C(=O)O)cc(C)n1` [Compound 157, 1-(4-(2-chlorophenyl)-5-(isopropylthio)thiazol-2-yl)-4-(2,6-dimethylpyridin-4-yl)-3-methyl-1H-pyrazole-5-carboxylic Acid] was run?
A: The EC50 was 1 to 5 µM.

Q: How did the EC50 (Homo sapiens, read-out: EC50) turn out when `Cc1cc(-c2c(C)nn(-c3nc(-c4cccc(Cl)c4)c(SC(C)C)s3)c2C(=O)O)cc(C)n1` [Compound 158, 1-(4-(3-chlorophenyl)-5-(isopropylthio)thiazol-2-yl)-4-(2,6-dimethylpyridin-4-yl)-3-methyl-1H-pyrazole-5-carboxylic Acid] was run?
A: Its EC50 is 5 to 10 µM.

Q: With `Cc1cc(-c2c(C)nn(-c3nc(-c4ccc(Cl)cc4)c(SC(C)C)s3)c2C(=O)O)cc(C)n1` [Compound 159, 1-(4-(4-chlorophenyl)-5-(isopropylthio)thiazol-2-yl)-4-(2,6-dimethylpyridin-4-yl)-3-methyl-1H-pyrazole-5-carboxylic Acid] as the compound, how does the EC50 (Homo sapiens, read-out: EC50) read?
A: The EC50 was < 1 µM.

Q: For `Cc1cc(-c2c(C)nn(-c3nc(-c4ccc(Cl)cc4Cl)c(SC(C)C)s3)c2C(=O)O)cc(C)n1` [Compound 160, 1-(4-(2,4-dichlorophenyl)-5-(isopropylthio)thiazol-2-yl)-4-(2,6-dimethylpyridin-4-yl)-3-methyl-1H-pyrazole-5-carboxylic Acid], which EC50 (Homo sapiens, read-out: EC50) is on record?
A: The EC50 was < 1 µM.
